# Reference: patent publication US8822535B2 (priority 2005, dated 2014)
# Where “and” joins values, the source holds several entries; their conditions need not be identical. Equal values may be shown once. Read-outs that look alike come from different tables or passages of the source.
# What was measured:
# [1] = tested on: zebrafish (D. rerio) embryos; experiment: Zebrafish embryo heart rate screening assay; type: in vivo
# From the text: These embryos are transparent, allowing one to view, using a dissecting microscope with a 4-20 times power lense, the heart beat and resultant blood flow into the main vessel along the back and into the tail. Heart rate in these animals is an indicator of the metabolic activity of the organism, such that a reduction in the heart rate signifies a reduction in metabolism. Embryos were dissected from their egg casings and distributed five per well in flat bottomed polystyrene tissue culture plates and incubated in 1 mL of standard fish water. The fishwater is composed of 1 teaspoon Instant Ocean (artificial sea water mixture, Aquarium Systems, Inc.) per 5 gallons. Calcium chloride is adjusted to 150 ppm and sodium bicarbonate to ˜100 ppm.
# mice [2] = experiment: Cyanide exposure experiment in mice; type: in vivo, mouse; conditions: 80 ppm in room air at room temperature
# Procedure: To measure metabolic effects of HCN, mice were exposed to increasing concentrations of HCN starting at 1 ppm. Oxygen (O2) consumption, carbon dioxide (CO2) production, body core temperature (BCT) and behavior were measured or evaluated. […]. A metabolic effect is defined as a 10% change in less than 10 minutes in any of the assay values described above.
# mice [3] = tested on: mice
# From the text: Female C57BL/6J mice (Jackson Laboratories—Bar Harbor, Me.) were implanted with telemetry devices (PDT-4000 HR E-Mitter—MiniMitter Inc.—Bend, Oreg.) according to standard protocol provided by the manufacturer. Mice were allowed to recover for several weeks to permit body temperature and heart rate signals to stabilize. Core body temperature, heart rate, and movement of the mice were continuously monitored via the telemetry devices and recorded using VitalView software (provided by MiniMitter). Ambient temperature was monitored using a HOBO (Onset Computer Corp. —Pocasset, Mass.) and the data analyzed using BoxCar software (provided by Onset Computer Corp.).
# Prior to and during exposure to testing in regulated and unregulated atmospheres, the mice were placed in a gassing chamber comprising a glass cage (with drinking water and no food) fitted with import and export tubes of FEP tubing from Cole-Parmer (Vernon Hills, Ill.) for introduction and venting of the atmosphere. The cage was sealed with a lid using Dow Corning silicone vacuum grease (Sigma—St. Louis, Mo.). The gas from each cage was vented through the export tube into the chemical hood. To ensure that the system was gas-tight, a GasTech GT portable monitor was used to detect leaks.
# In some experiments, the consumption of oxygen was measured by use of a PA-10a O2 analyzer (Sable Systems) which was used according to manufacturers instructions. Similarly, the carbon dioxide being produced by the animals was monitored using a LI-7000 CO2/H2O analyzer (Li-Cor company) used according to the manufacturers instructions. These instruments were placed in line with the environmental chambers such that they sample the gas import and export tubing.
# Mice were housed in a Shel Lab low temperature diurnal illumination incubator (Sheldon Manufacturing Inc. —Cornelius, Oreg.) to regulate both temperature and light cycle (8 AM lights on, 8 PM lights off) for the mice. Mice were exposed to regulated atmosphere as described above. When the mice were exposed to the regulated atmosphere, the temperature inside the incubator was dropped to the desired temperature, for example, to 10° C. or 15° C. The mice were maintained in the regulated atmosphere and at the lowered temperature for six hours. The atmosphere in the gassing chamber was replaced with room air and the mice were returned to normal room temperature (22° C.) and allowed to recover.
# To test this hypothesis, the inventor wanted to continuously monitor both the core body temperature and the activity levels of a homeothermic animal (a mouse).
# rats [4] = type: in vivo, rat
# Procedure: After surgical implantation of catheters and recovery, blood was removed from conscious animals in 40 minutes. […] Three hours after the end of the bleed, surviving animals were given one shed-blood volume of lactated ringers solution intravenously.
# dogs = experiment: Gas matrix: metabolic flexibility in altered gas environments, dogs; type: in vivo, dog; conditions: 0.85% in room air, mask, room temperature (22° C.)
# Procedure: (§1) Metabolic flexibility was evaluated in mice rats and dogs using altered gas environments. Three parameters were used to define this reduction in metabolism including changes in carbon dioxide production, oxygen consumption measured by respirometry, and core temperature as measured using telemetry. In experiments with mice and rats the animals were placed into sealed chambers with one gas import and one gas export. For dogs a mask was placed over the snout of the animal with two hoses (import and export) attached to the mask. The flow rate of gas for each of the animals mice—500 cc per minute, rats—2 liters per minute, and dogs 40 liters per minute. Each atmosphere was constructed from compressed gas by dilution into room air unless otherwise noted. For rat and mouse experiments the ambient temperature was 7 to 10° C. during exposure to the test gases. For dogs ambient temperature was room temperature (22° C.).
# (§2) Evidence of depression in metabolic rate of greater than 5-fold as judged by carbon dioxide production or oxygen consumption during a 6-hour treatment is described by “Yes”; […]; “N/D” denotes experiments not done. The temperature drop in the dog experiment (Carbon dioxide+low oxygen+Helium) was approximately 1.5° C. over the course of 30 minutes of exposure. This drop in temperature was considered significant because the dog was 12 kg and no such temperature drop was seen during extensive baseline recording of the animal in room air.
# [5] = in vivo; cited from earlier work
# mice [6] = type: in vivo, mouse (C57Bl/6)
# C. elegans nematodes = conditions: in vivo
# rats [7] = tested on: rats
# Procedure: On the day of the experiment, catheters were surgically implanted into the right femoral artery and vein. Catheters exited behind scapulae. Rats were administered buprenorphine post-surgically and allowed to recover.
# The anti-coagulant drug heparin (80-100 units) was administered intravenously as a bolus to decrease the clotting ability of the blood and enhance hemorrhage. […] Catheters, temperature probe, and gas sampling tube were passed through a hole drilled in the middle of the lid. Temperature was maintained at approximately isothermal temperature (27+/−2° C.).
# The hemorrhage model was defined by the removal of 60% of total body blood over the course of a 40 minute bleed. Blood was removed using a peristaltic pump.
# Blood was removed at the calculated rate via the femoral catheter artery. Blood was weighed as it was removed.
# Metabolic rate was determined by measuring CO2 production (Licor Li7000). Temperature and CO2 data were collected (ADI PowerLab). Arterial blood values were measured (I-Stat blood chemistry analyzer). Following the bleed, animals were placed in a cage for three hours and observed. At the end of three hours, surviving rats were given lactated ringers ad libitum. For non-surviving animals, time of death was declared when animals stopped breathing and CO2 production ceased. […]
# mice [8] = experiment: Gas matrix: metabolic flexibility in altered gas environments, mice; type: in vivo, mouse; conditions: 0.01% in room air, ambient 7 to 10° C., 6-hour treatment
# Procedure: as §1, §2
# rats [9] = experiment: Gas matrix: metabolic flexibility in altered gas environments, rats; type: in vivo, rat; conditions: 0.03% in room air, ambient 7 to 10° C., 6-hour treatment
# Procedure: as §1, §2
# [10] = 80 ppm H2S, 15 minutes, 0.5 L chamber
smiles,measurement,setting,value
"S [H2S, hydrogen sulfide]",heart rate after recovery,"[1]; 24 hours after initial exposure, solution replaced with normal fishwater after five hours",160-200 beats per minute
same,heart beats,"[1]; 48 hour old embryos, hydrogen sulfide-containing fishwater (approximately 0.1 molar), 2-3 hours following exposure",60-80 beats per minute
same,core temperature,mice [2],approximately 28 °C
same,core body temperature reached repeatedly,mice [3]; 80 ppm,13-15 °C
same,reduction in carbon dioxide production,mice [3]; 80 ppm H2S (FIG. 4A),approximately 3 fold
same,drop in carbon dioxide production,mice [3]; [10],3-4 fold
same,drop in oxygen consumption,mice [3]; [10],2-3 fold
same,heart rate,"mice [3]; 80 ppm, 3 hrs, dropped from 600 bpm",250 bpm
same,lowest core body temperature recorded,"mice [3]; 80 ppm, ambient temperature dropped to less than 10° C. (FIG. 7)",10.7 °C
same,core temperature,"mice [3]; 80 ppm, cabinet 10° C., telemetry mouse, estimation from slope after electronics failed at 15.3° C.",approximately 12.5 °C
same,core body temperature,"mice [3]; 80 ppm, cabinet 10.5° C., approximately six hours",10.5 °C
same,decrease in cellular respiration,"mice [3]; 80 ppm, core temperature 15° C.",1-20 fold
same,breathing,"mice [3]; 80 ppm, core temperature dropped to 15° C.",1-10 breaths per minute
same,core temperature,"mice [3]; 80 ppm, incubator 18° C., 90 min",28.6 °C
same,core temperature,"mice [3]; 80 ppm, incubator 18° C., 3 hrs",18.6 °C
same,Consumption of oxygen,mice [3]; H2S (80 ppm) present,1300 ppm
same,production of carbon dioxide,mice [3]; H2S (80 ppm) present,750 ppm
same,RQ,"mice [3]; mouse, in vivo",0.58
same,behavior of the animals,"mice [3]; mouse, in vivo",no apparent change in the behavior
same,behavior tests (SHIRPA protocol),"mice [3]; mouse, in vivo",no detectable behavioral differences
same,lowest average core body temperature,"mice [3]; seven mice, 80 ppm, 6 hrs, ambient temperature 13° C.",15 °C
same,rats surviving hemorrhage and 3 hour shock period,rats [4]; 300 ppm H2S,6/7
same,Complete recovery,rats [4]; 300 ppm H2S from 30% blood loss to end of 40 minute bleed,85.7% (6/7)
same,CO2 production (VCO2),rats [4]; 15 minutes post bleed,17 ± 3 mL/min/kg
same,Blood CO2 content (pCO2),rats [4]; End of bleed,35 +/− 6 mmHg
same,Blood Lactate,rats [4]; End of bleed,6.6 ± 1 mmol/L
same,Blood base excess,rats [4]; End of bleed,-5 ± 4 mmol/L
same,Blood bicarbonate content ([HCO3]),rats [4]; End of bleed,21 ± 3 mmol/L
same,Blood pH,rats [4]; End of bleed,7.41 +/− 0.02
same,CO2 production (VCO2),rats [4]; End of bleed,16 ± 2 mL/min/kg
same,CO2 production (VCO2),rats [4]; Mid-bleed,20 ± 2 mL/min/kg
same,Blood CO2 content (pCO2),rats [4]; Pre-bleed,45 +/− 6 mmHg
same,Blood Lactate,rats [4]; Pre-bleed,1.4 ± 0.5 mmol/L
same,Blood base excess,rats [4]; Pre-bleed,8 ± 2 mmol/L
same,Blood bicarbonate content ([HCO3]),rats [4]; Pre-bleed,32 ± 3 mmol/L
same,Blood pH,rats [4]; Pre-bleed,7.46 +/− 0.03
same,CO2 production (VCO2),rats [4]; Pre-bleed,25 ± 4 mL/min/kg
same,Time to death of non-survivors,"rats [4]; after the end of the bleed, 300 ppm H2S",174 min and 174 (1/7) min
same,"depression in metabolic rate, Dog",dogs,No 0.85% (“No” (reduction or less than a 5-fold reduction in these values is described as such)
same,LD50,[5],approximately 700 ppm
same,"adverse effects, gross and histopathological examination",[5],no observed adverse effect
same,behavioral toxicity,[5],"Significant reductions in motor activity, water maze performance and body temperature"
same,perinatal toxicity,[5],no neuropathological effects
same,tolerability,[5],innocuous
same,drop in CO2 production during hypoxia from pre-exposure level,"mice [6]; 150 ppm H2S 20 minutes, then 5% O2 for several hours (FIG. 25)",approximately 50 fold
same,CO2 output,"mice [6]; 150 ppm H2S 20 minutes, then several hours of 5% O2, pre-exposure approximately 2500 ppm",approximately 50 ppm
same,survival time at lethal oxygen tensions,mice [6]; 150 ppm H2S prior to oxygen tension reduced to between 5% and 2.5% (FIG. 24),at least 60 minutes
same,reduction in CO2 evolution,"mice [6]; pre-treatment with H2S, new lower baseline",50-60%
same,lethality,C. elegans nematodes,considerable lethality
same,progeny,C. elegans nematodes,same number of progeny
same,survival of the hemorrhage,"rats [7]; 2000 ppm H2S in room air at 20 minutes of the 40 minute bleed, generally 1 to 2 minutes, 7 out of 8",88%
same,signs during exposure,"rats [7]; rat, in vivo",apnea and dystonia
same,"depression in metabolic rate, Mouse",mice [8],Yes 0.01% (Evidence of depression in metabolic rate of greater than 5-fold as judged by carbon dioxide production or oxygen consumption during a 6-hour treatment is described by “Yes”)
same,"depression in metabolic rate, Rat",rats [9],Yes 0.03% (Evidence of depression in metabolic rate of greater than 5-fold as judged by carbon dioxide production or oxygen consumption during a 6-hour treatment is described by “Yes”)
